Measurements taken from patent US10112940B2, “Histone demethylase inhibitors” (Celgene Quanticel Research, Inc., priority 2014, dated 2018).

What was measured:
[1] = test system: KYSE-150 esophageal carcinoma cell line; assay: In vitro cell-based assay: BrdU incorporation cell proliferation ELISA; parameters: species or system human; details: Homo sapiens, KYSE-150 cells, 168 hours compound incubation, read-out: Cellular IC50
Experimental: Cell lines tested include the JMJD2C gene amplified cell line KYSE-150. This is a quantitative ELISA assay measuring DNA incorporation of BrdU during S-phase as a direct readout of cellular proliferation.
Assay Principle: This is a colorimetric immunoassay for the quantification of cell proliferation. Cells treated for 168 hours with test compounds are assayed for their ability to go through S-phase as a measure of their proliferative potential.
Assay Method: The human KYSE-150 (SMAD4 mut, TP53 mut) esophageal carcinoma cell line was seeded at 2,000 cells/well on a 96-well tissue culture treated plate. After an overnight incubation, cells were treated with compound in an 11-point dilution series with final concentrations ranging from 100 μM to 2 nM. Cells were then incubated in the presence of compound for 168 hours. After compound incubation the cells were assayed using a BrdU Cell Proliferation ELISA (Roche). The cells were first incubated with BrdU labeling reagent for 2 hours. After 2 hours, the BrdU incorporated cells were fixed and denatured, probed with an anti-BrdU-Peroxidase antibody for 1.5 hours and washed. Finally, a tetramethylbenzidine peroxidase substrate was added to each well for 15 minutes followed by a H2SO4 stop solution. The plate was read at 450 nm, and the raw optical density data was transferred into XLFit (IDBS) for IC50 calculation using the formula: fit=(D+((Vmax*(x^n))/((x^n)+(Km^n))))
Table 4 provides the cellular IC50 values of various compounds disclosed herein.

JMJD2C = JMJD2C (Homo sapiens (Human), UniProt Q9H3R0); assay: JMJD2C in vitro enzyme inhibition assay (TR-FRET); type: biochemical; details: 0.3 nM JMJD2C, 300 nM H3K9me3-biotin peptide, 2 μM alpha-ketoglutaric acid, 30 minutes
Experimental: This assay determines the ability of a test compound to inhibit JMJD2C demethylase activity. Baculovirus expressed JMJD2C (GenBank Accession #BC143571, AA 2-372) was purchased from BPS Bioscience (Cat#50105).
The ability of test compounds to inhibit the activity of JMJD2C was determined in 384-well plate format under the following reaction conditions: 0.3 nM JMJD2C, 300 nM H3K9me3-biotin labeled peptide (Anaspec cat #64360), 2 μM alpha-ketoglutaric acid in assay buffer of 50 mM HEPES, pH7.3, 0.005% Brij35, 0.5 mM TCEP, 0.2 mg/ml BSA, 50 μM sodium L-ascorbate, and 2 μM ammonium iron(II) sulfate. Reaction product was determined quantitatively by TR-FRET after the addition of detection reagent Phycolink Streptavidin-allophycocyanin (Prozyme) and Europium-anti-di-methylated histone H3 lysine 9 (H3K9me2) antibody (PerkinElmer) in the presence of 5 mM EDTA in LANCE detection buffer (PerkinElmer) at a final concentration of 50 nM and 1 nM, respectively.
The assay reaction was initiated by the following: 2 μl of the mixture of 900 nM H3K9me3-biotin labeled peptide and 6 μM alpha-ketoglutaric acid with 2 μl of 11-point serial diluted inhibitor in 3% DMSO were added to each well of the plate, followed by the addition of 2 μl of 0.9 nM JMJD2C to initiate the reaction. The reaction mixture was incubated at room temperature for 30 minutes, and terminated by the addition of 6 μl of 5 mM EDTA in LANCE detection buffer containing 100 nM Phycolink Streptavidin-allophycocyanin and 2 nM Europium-anti-H3K9me2 antibody. Plates were read by EnVisionMultilabel Reader in TR-FRET mode (excitation at 320 nm, emission at 615 nm and 665 nm) after 1 hour incubation at room temperature. A ratio was calculated (665/615) for each well and fitted to determine inhibition constant (IC50).
The ability of the compounds disclosed herein to inhibit demethylase activity was quantified and the respective IC50 value was determined. Table 3 provides the IC50 values of various compounds disclosed herein.

JMJD2C, sequence (Q9H3R0 2-372): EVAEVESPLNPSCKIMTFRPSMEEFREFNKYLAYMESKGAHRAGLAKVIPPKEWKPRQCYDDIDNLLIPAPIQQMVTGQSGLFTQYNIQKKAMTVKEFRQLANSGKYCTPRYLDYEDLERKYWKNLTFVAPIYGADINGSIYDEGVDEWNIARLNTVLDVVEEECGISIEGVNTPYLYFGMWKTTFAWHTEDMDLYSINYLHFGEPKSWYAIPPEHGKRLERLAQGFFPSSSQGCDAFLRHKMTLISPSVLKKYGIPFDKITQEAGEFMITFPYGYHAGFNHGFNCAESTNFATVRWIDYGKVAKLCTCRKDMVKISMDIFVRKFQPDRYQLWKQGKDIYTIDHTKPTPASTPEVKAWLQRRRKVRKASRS

SMILES	IC50 [1] [nM]	IC50 (JMJD2C) [nM]
CC(c1ccc(N(C)c2ccc(Oc3nc(O)c4ccncc4n3)cc2)cc1)C1CC1 (centres unmarked) [Example 39, 2-(4-{[4-(1-cyclopropyl-ethyl)-phenyl]-methyl-amino}-phenoxy)-pyrido[3,4-d]pyrimidin-4-ol]	≤ 100	1000 to 10000
CN(CC1CCc2ccccc21)c1ccc(Oc2nc(O)c3ccncc3n2)cc1 (centres unmarked) [Example 62, 2-[4-[2,3-dihydro-1H-inden-1-ylmethyl(methyl)amino]phenoxy]pyrido[3,4-d]pyrimidin-4-ol]	1000 to 10000	100 to 1000
CN(c1ccc(Oc2nc(O)c3ccncc3n2)cc1)c1cccc(S(C)(=O)=O)c1 [Example 56, 2-[4-(N-methyl-3-methylsulfonylanilino)phenoxy]pyrido[3,4-d]pyrimidin-4-ol]	> 10000	100 to 1000
CN(c1ccccc1)c1ccc(Oc2nc(O)c3ccncc3n2)cc1 [Example 5, 2-[4-(Methyl-phenyl-amino)-phenoxy]-pyrido[3,4-d]pyrimidin-4-ol]	100 to 1000	100 to 1000
CN1CCN(c2cccc(N(C)c3ccc(Oc4nc(O)c5ccncc5n4)cc3)c2)CC1=O [Example 45, 4-[3-[4-(4-hydroxypyrido[3,4-d]pyrimidin-2-yl)oxy-N-methylanilino]phenyl]-1-methylpiperazin-2-one]	> 10000	100 to 1000
CCN(c1ccccc1)c1ccc(Oc2nc(O)c3ccncc3n2)cc1 [Example 80, 2-[4-(N-ethylanilino)phenoxy]pyrido[3,4-d]pyrimidin-4-ol]	100 to 1000	100 to 1000
Cc1ccc(N(C)c2ccc(Oc3nc(O)c4ccncc4n3)cc2)cc1N1CCOCC1 [Example 55, 2-[4-(N,4-dimethyl-3-morpholin-4-ylanilino)phenoxy]pyrido[3,4-d]pyrimidin-4-ol]	1000 to 10000	100 to 1000
C[C@H](c1ccccc1)N(C)c1ccc(Oc2nc(O)c3ccncc3n2)cc1 [Example 52, 2-[4-[methyl-[(1R)-1-phenylethyl]amino]phenoxy]pyrido[3,4-d]pyrimidin-4-ol]	1000 to 10000	100 to 1000
Oc1nc(Oc2ccc3c(c2)CCN3c2ccccc2)nc2cnccc12 [Example 32, 2-(1-phenyl-2,3-dihydro-1H-indol-5-yloxy)-pyrido[3,4-d]pyrimidin-4-ol]	1000 to 10000	100 to 1000
CN1CCC(N(C)c2cccc(N(C)c3ccc(Oc4nc(O)c5ccncc5n4)cc3)c2)CC1 [Example 89, 2-[4-[N-methyl-3-[methyl-(1-methylpiperidin-4-yl)amino]anilino]phenoxy]pyrido[3,4-d]pyrimidin-4-ol]	1000 to 10000	≤ 100
CN(c1ccc(Oc2nc(O)c3ccncc3n2)cc1)c1ccc(C(C)(C)C)cc1 [Example 92, 2-[4-(4-tert-butyl-N-methylanilino)phenoxy]pyrido[3,4-d]pyrimidin-4-ol]	≤ 100	100 to 1000
CN(c1ccc(Oc2nc(O)c3ccncc3n2)cc1)c1ccc(C2CC2)cc1 [Example 42, 2-{4-[(4-cyclopropyl-phenyl)-methyl-amino]-phenoxy}-pyrido[3,4-d]pyrimidin-4-ol]	100 to 1000	100 to 1000
Cn1ccc2cc(Oc3nc(O)c4ccncc4n3)ccc21 [Example 2, 2-(1-Methyl-1H-indol-5-yloxy)-pyrido[3,4-d]pyrimidin-4-ol]	≤ 100	100 to 1000
CN(c1ccc(Oc2nc(O)c3ccncc3n2)cc1)c1ccc2nn(C)cc2c1 [Example 82, 2-[4-[methyl-(2-methylindazol-5-yl)amino]phenoxy]pyrido[3,4-d]pyrimidin-4-ol]	> 10000	100 to 1000
Oc1nc(Oc2ccc(N3CCOC(c4ccccc4)C3)cc2)nc2cnccc12 (centres unmarked) [Example 26, 2-[4-(2-phenyl-morpholin-4-yl)-phenoxy]-pyrido[3,4-d]pyrimidin-4-ol]	> 10000	100 to 1000
CN(c1ccc(OCC(F)(F)F)cc1)c1ccc(Oc2nc(O)c3ccncc3n2)cc1 [Example 73, 2-[4-[N-methyl-4-(2,2,2-trifluoroethoxy)anilino]phenoxy]pyrido[3,4-d]pyrimidin-4-ol]	≤ 100	100 to 1000
CN(c1ccc(Oc2nc(O)c3ccncc3n2)cc1)c1ccc(C2(C(F)(F)F)CC2)cc1 [Example 107, 2-[4-[N-methyl-4-[1-(trifluoromethyl)cyclopropyl]anilino]phenoxy]pyrido[3,4-d]pyrimidin-4-ol]	≤ 100	1000 to 10000
CN(c1ccc(Oc2nc(O)c3ccncc3n2)cc1)c1cccc(N2CCCC(N)C2)c1 (centres unmarked) [Example 58, 2-[4-[3-(3-aminopiperidin-1-yl)-N-methylanilino]phenoxy]pyrido[3,4-d]pyrimidin-4-ol]	> 10000	≤ 100
CN(c1ccc(CC2CC2)cc1)c1ccc(Oc2nc(O)c3ccncc3n2)cc1 [Example 76, 2-[4-[4-(cyclopropylmethyl)-N-methylanilino]phenoxy]pyrido[3,4-d]pyrimidin-4-ol]	≤ 100	1000 to 10000

More lines, now with the values ahead:

IC50 [1] [nM]	IC50 (JMJD2C) [nM]	SMILES
100 to 1000	1000 to 10000	CN(c1ccc(OCC2CC2)cc1)c1ccc(Oc2nc(O)c3ccncc3n2)cc1 [Example 101, 2-[4-[4-(cyclopropylmethoxy)-N-methylanilino]phenoxy]pyrido[3,4-d]pyrimidin-4-ol]
> 10000	≤ 100	CN(c1ccc(Oc2nc(O)c3ccncc3n2)cc1)c1cccc(N2CCC(N)CC2)c1 [Example 50, 2-[4-[3-(4-aminopiperidin-1-yl)-N-methylanilino]phenoxy]pyrido[3,4-d]pyrimidin-4-ol]
1000 to 10000	100 to 1000	Oc1nc(Oc2ccc3c(cnn3Cc3ccccc3)c2)nc2cnccc12 [Example 15, 2-(1-Benzyl-1H-indazol-5-yloxy)-pyridino[3,4-d]pyrimidin-4-ol]
> 10000	1000 to 10000	Oc1nc(Oc2ccc(N3CCC(c4ccccc4)C3)cc2)nc2cnccc12 (centres unmarked) [Example 54, 2-[4-(3-phenylpyrrolidin-1-yl)phenoxy]pyrido[3,4-d]pyrimidin-4-ol]
> 10000	100 to 1000	CN(c1ccc(Oc2nc(O)c3ccncc3n2)cc1)c1cncc(N2CCOCC2)c1 [Example 27, 2-{4-[methyl-(5-morpholin-4-yl-pyridin-3-yl)-amino]-phenoxy}-pyrido[3,4-d]pyrimidin-4-ol]
1000 to 10000	1000 to 10000	CN(c1ccccc1)c1cccc(Oc2nc(O)c3ccncc3n2)c1 [Example 7, 2-[3-(Methyl-phenyl-amino)-phenoxy]-pyrido[3,4-d]pyrimidin-4-ol]
> 10000	100 to 1000	Oc1nc(Oc2ccc3c(ccn3C3CCOCC3)c2)nc2cnccc12 [Example 91, 2-[1-(oxan-4-yl)indol-5-yl]oxypyrido[3,4-d]pyrimidin-4-ol]
100 to 1000	100 to 1000	COCCN(c1ccc(Oc2nc(O)c3ccncc3n2)cc1)c1ccc(C(C)C)cc1 [Example 102, 2-[4-[N-(2-methoxyethyl)-4-propan-2-ylanilino]phenoxy]pyrido[3,4-d]pyrimidin-4-ol]
> 10000	100 to 1000	CN(C(=O)Cc1ccccc1)c1ccc(Oc2nc(O)c3ccncc3n2)cc1 [Example 24, N-[4-(4-hydroxy-pyrido[3,4-d]pyrimidin-2-yloxy)-phenyl]-N-methyl-2-phenyl-acetamide]
